Conditions: Fluid (supercritical or subcritical phases), Constant-volume piezometry

O [water]
Conditions | mass density [kg/m3]
299.25 K, 5182 kPa | 999.2
299.25 K, 31060 kPa | 1010.4
349.12 K, 8540 kPa | 977.86
349.12 K, 24440 kPa | 984.93
399.57 K, 3183 kPa | 939.45
399.57 K, 30090 kPa | 952.6
438.94 K, 6455 kPa | 905.35
438.94 K, 27860 kPa | 917.35
494.18 K, 8890 kPa | 844.81
494.18 K, 29240 kPa | 859.91
555.43 K, 9803 kPa | 751.67
555.43 K, 27940 kPa | 777.34
617.27 K, 16300 kPa | 603.42
617.27 K, 28080 kPa | 653.82
